From ChEMBL document CHEMBL3045179, “Mode of Action and QSAR Studies of Nitrification Inhibitors” (J Pestic Sci, 1997)

Columns and labels:
[1] = system: Nitrosomonas europaea; experiment: Inhibition of Nitrosomonas europaea ATCC 25978-mediated nitrification activity assessed as nitrite nitrogen formation after 7 to 10 days by Griess-Ilosvay method; format: functional, organism-based; conditions: read-out: pI50 (converted)
[2] = system: Nitrosomonas sp. TK794; experiment: Inhibition of Nitrosomonas sp. TK794-mediated nitrification activity assessed as nitrite nitrogen formation at 1 mg/kg after 7 to 10 days by Griess-Ilosvay method relative to control; format: functional
[3] = system: Nitrosomonas europaea; experiment: Inhibition of Nitrosomonas europaea ATCC 25978-mediated nitrification activity assessed as nitrite nitrogen formation at 1 mg/kg after 7 to 10 days by Griess-Ilosvay method relative to control; format: functional; conditions: values are per cent of control
[4] = Octanol-water partition coefficient, log P of the compound; format: physicochemical
[5] = system: Nitrosomonas sp. TK794; experiment: Inhibition of Nitrosomonas sp. TK794-mediated nitrification activity assessed as nitrite nitrogen formation at 25 mg/kg after 7 to 10 days by Griess-Ilosvay method relative to control; format: functional
[6] = system: Nitrosomonas europaea; experiment: Inhibition of Nitrosomonas europaea ATCC 25978-mediated nitrification activity assessed as nitrite nitrogen formation at 0.5 mg/kg after 7 to 10 days by Griess-Ilosvay method relative to control; format: functional; conditions: values are per cent of control
[7] = system: Nitrosomonas europaea; experiment: Inhibition of Nitrosomonas europaea ATCC 25978-mediated nitrification activity assessed as nitrite nitrogen formation at 10 mg/kg after 7 to 10 days by Griess-Ilosvay method relative to control; format: functional
[8] = system: Nitrosomonas sp. TK794; experiment: Inhibition of Nitrosomonas sp. TK794-mediated nitrification activity assessed as nitrite nitrogen formation at 0.5 mg/kg after 7 to 10 days by Griess-Ilosvay method relative to control; format: functional
[9] = system: Nitrosomonas sp. TK794; experiment: Inhibition of Nitrosomonas sp. TK794-mediated nitrification activity assessed as nitrite nitrogen formation at 5 mg/kg after 7 to 10 days by Griess-Ilosvay method relative to control; format: functional
[10] = system: Nitrosomonas europaea; experiment: Inhibition of Nitrosomonas europaea ATCC 25978-mediated nitrification activity assessed as nitrite nitrogen formation at 0.1 mg/kg after 7 to 10 days by Griess-Ilosvay method relative to control; format: functional; conditions: values are per cent of control
[11] = system: Nitrosomonas sp. TK794; experiment: Inhibition of Nitrosomonas sp. TK794-mediated nitrification activity assessed as nitrite nitrogen formation at 500 mg/kg after 7 to 10 days by Griess-Ilosvay method relative to control; format: functional
[12] = system: Nitrosomonas europaea; experiment: Inhibition of Nitrosomonas europaea ATCC 25978-mediated nitrification activity assessed as nitrite nitrogen formation at 400 mg/kg after 7 to 10 days by Griess-Ilosvay method relative to control; format: functional
[13] = system: Nitrosomonas sp. TK794; experiment: Inhibition of Nitrosomonas sp. TK794-mediated nitrification activity assessed as nitrite nitrogen formation at 4 mg/kg after 7 to 10 days by Griess-Ilosvay method relative to control; format: functional
[14] = system: Nitrosomonas europaea; experiment: Inhibition of Nitrosomonas europaea ATCC 25978-mediated nitrification activity assessed as nitrite nitrogen formation at 2 mg/kg after 7 to 10 days by Griess-Ilosvay method relative to control; format: functional
[15] = system: Nitrosomonas sp. TK794; experiment: Inhibition of Nitrosomonas sp. TK794-mediated nitrification activity assessed as nitrite nitrogen formation at 0.1 mg/kg after 7 to 10 days by Griess-Ilosvay method relative to control; format: functional
[16] = system: Nitrosomonas sp. TK794; experiment: Inhibition of Nitrosomonas sp. TK794-mediated nitrification activity assessed as nitrite nitrogen formation at 200 mg/kg after 7 to 10 days by Griess-Ilosvay method relative to control; format: functional
[17] = system: Nitrosomonas europaea; experiment: Inhibition of Nitrosomonas europaea ATCC 25978-mediated nitrification activity assessed as nitrite nitrogen formation at 200 mg/kg after 7 to 10 days by Griess-Ilosvay method relative to control; format: functional
[18] = system: Nitrosomonas sp. TK794; experiment: Inhibition of Nitrosomonas sp. TK794-mediated nitrification activity assessed as nitrite nitrogen formation at 50 mg/kg after 7 to 10 days by Griess-Ilosvay method relative to control; format: functional
[19] = system: Nitrosomonas europaea; experiment: Inhibition of Nitrosomonas europaea ATCC 25978-mediated nitrification activity assessed as nitrite nitrogen formation at 5 mg/kg after 7 to 10 days by Griess-Ilosvay method relative to control; format: functional

IC50 [1] [nM] | logP ([4]; read-out: logP) | SMILES | residual activity at 0.1 mg/kg [10] [%] | other results
1100 | 5.74 | Fc1ccc(Oc2nc(C(Cl)(Cl)Cl)nc(C(Cl)(Cl)Cl)n2)c(Cl)c1 |  | residual activity at 0.5 mg/kg [6]: 52.2%; inhibition in vivo at 1 mg/kg [2]: 57.8%
 | 2.45 | Nc1nc(C(Cl)(Cl)Cl)nc(C(Cl)(Cl)Cl)n1 |  | inhibition in vivo at 1 mg/kg [2]: 56.2%
389 | 5.75 | CCCNc1nc(-c2ccccc2)nc(C(Cl)(Cl)Cl)n1 | 50.1 | inhibition in vivo at 0.5 mg/kg [8]: 58.1%
617 | 5.65 | CCCCc1nc(C(Cl)(Cl)Cl)nc(C(Cl)(Cl)Cl)n1 |  | inhibition in vivo at 1 mg/kg [2]: 33.6%; residual activity at 1 mg/kg [3]: 29.5%
457 | 3.59 | COc1nc(C(Cl)(Cl)Cl)nc(C(Cl)(Cl)Cl)n1 | 27.4 | inhibition in vivo at 1 mg/kg [2]: 47.8%
45700 |  | CCCCCCCCCCCCNc1nc(C)nc(C(Cl)(Cl)Cl)n1 |  | inhibition in vivo at 10 mg/kg [7]: 69.4%; inhibition in vivo at 500 mg/kg [11]: 33.2%; logP [4]: 9.3
3020 | 7.72 | CCCCCCCCCNc1nc(C)nc(C(Cl)(Cl)Cl)n1 |  | residual activity at 1 mg/kg [3]: 59%; inhibition in vivo at 5 mg/kg [9]: 55%
380 | 5.23 | CCNc1nc(-c2ccccc2)nc(C(Cl)(Cl)Cl)n1 | 45.3 | inhibition in vivo at 0.5 mg/kg [8]: 47.8%
2000 | 4.56 | CCCNc1nc(C)nc(C(Cl)(Cl)Cl)n1 |  | residual activity at 1 mg/kg [3]: 42.9%
9120 | 8.27 | CCCCCCCCCCNc1nc(C)nc(C(Cl)(Cl)Cl)n1 |  | inhibition in vivo at 10 mg/kg [7]: 56.2%; inhibition in vivo at 50 mg/kg [18]: 50%
490 | 2.36 | COc1nc(N)nc(C(Cl)(Cl)Cl)n1 | 36.1 | inhibition in vivo at 0.5 mg/kg [8]: 29.5%
708 | 4.07 | Cc1nc(C(Cl)(Cl)Cl)nc(C(Cl)(Cl)Cl)n1 |  | inhibition in vivo at 0.5 mg/kg [8]: 65%; residual activity at 0.5 mg/kg [6]: 47.2%
1660 | 5.79 | CCCCCCNc1nc(C(Cl)(Cl)Cl)nc(C(Cl)(Cl)Cl)n1 |  | residual activity at 1 mg/kg [3]: 42.7%
977 | 4.72 | CCCCNc1nc(C(Cl)(Cl)Cl)nc(C(Cl)(Cl)Cl)n1 | 72.4 | 
1510 | 5.08 | CCCCNc1nc(C)nc(C(Cl)(Cl)Cl)n1 | 79.5 | 

More lines, now with the values behind:

SMILES | IC50 [1] [nM] | logP ([4]; read-out: logP) | residual activity at 0.1 mg/kg [10] [%] | other results
CCCCN(CCCC)c1nc(C)nc(C(Cl)(Cl)Cl)n1 | 2090 | 7.23 |  | inhibition in vivo at 1 mg/kg [2]: 56.8%; residual activity at 1 mg/kg [3]: 56.2%
ClC(Cl)(Cl)c1nc(C(Cl)(Cl)Cl)nc(C(Cl)(Cl)Cl)n1 |  | 3.71 |  | inhibition in vivo at 25 mg/kg [5]: 50%
CCCCc1nc(N)nc(C(Cl)(Cl)Cl)n1 | 1200 | 4.4 |  | inhibition in vivo at 1 mg/kg [2]: 39.7%; residual activity at 1 mg/kg [3]: 29%
CCCCCCCCCCNc1nc(C(Cl)(Cl)Cl)nc(C(Cl)(Cl)Cl)n1 | 10500 | 7.9 |  | inhibition in vivo at 10 mg/kg [7]: 36.8%
CSc1nc(C(Cl)(Cl)Cl)nc(C(Cl)(Cl)Cl)n1 | 186 | 4.21 |  | inhibition in vivo at 0.5 mg/kg [8]: 41.3%; residual activity at 0.5 mg/kg [6]: 18.7%
CCCOc1nc(-c2ccccc2)nc(C(Cl)(Cl)Cl)n1 | 3390 | 6.22 |  | residual activity at 1 mg/kg [3]: 48.5%; inhibition in vivo at 5 mg/kg [9]: 47.9%
COc1nc(C)nc(C(Cl)(Cl)Cl)n1 |  | 3.98 |  | inhibition in vivo at 0.5 mg/kg [8]: 32%
CCCCCCNc1nc(C)nc(C(Cl)(Cl)Cl)n1 | 417 | 6.13 | 54.5 | 
CCCCN(C)c1nc(C)nc(C(Cl)(Cl)Cl)n1 | 589 | 5.65 | 59.5 | 
Cc1nc(N)nc(C(Cl)(Cl)Cl)n1 |  | 2.82 |  | inhibition in vivo at 5 mg/kg [9]: 42.1%
COc1nc(-c2ccccc2)nc(C(Cl)(Cl)Cl)n1 | 229 | 5.17 | 31.4 | inhibition in vivo at 1 mg/kg [2]: 39%
CCCCCCCNc1nc(C)nc(C(Cl)(Cl)Cl)n1 | 380 | 6.66 | 44.9 | 
CCOc1nc(-c2ccccc2)nc(C(Cl)(Cl)Cl)n1 | 1050 | 5.7 |  | inhibition in vivo at 1 mg/kg [2]: 51.2%; residual activity at 1 mg/kg [3]: 31.4%
CN(C)c1nc(-c2ccccc2)nc(C(Cl)(Cl)Cl)n1 | 1700 | 5.4 |  | residual activity at 1 mg/kg [3]: 40.1%; inhibition in vivo at 5 mg/kg [9]: 43%
CSc1nc(N)nc(C(Cl)(Cl)Cl)n1 | 1260 | 2.96 |  | residual activity at 0.5 mg/kg [6]: 65.5%; inhibition in vivo at 5 mg/kg [9]: 27%
CN(C)c1nc(C(Cl)(Cl)Cl)nc(C(Cl)(Cl)Cl)n1 |  | 3.7 |  | inhibition in vivo at 0.5 mg/kg [8]: 60.5%
CCCCCCCCCCCCCCCCNc1nc(C)nc(C(Cl)(Cl)Cl)n1 |  |  |  | inhibition in vivo at 400 mg/kg [12]: 45.2%; inhibition in vivo at 500 mg/kg [11]: 81%; logP [4]: 11.4
Cc1nc(N(C)C)nc(C(Cl)(Cl)Cl)n1 |  | 4.07 |  | inhibition in vivo at 1 mg/kg [2]: 58.7%
Nc1nc(N)nc(C(Cl)(Cl)Cl)n1 | 7080 | 1.21 |  | inhibition in vivo at 4 mg/kg [13]: 40%; inhibition in vivo at 2 mg/kg [14]: 63.2%

SMILES | IC50 [1] [nM] | logP ([4]; read-out: logP) | residual activity at 0.1 mg/kg [10] [%] | other results
CNc1nc(-c2ccccc2)nc(C(Cl)(Cl)Cl)n1 | 372 | 4.7 | 53.2 | inhibition in vivo at 0.5 mg/kg [8]: 57.1%
CCNc1nc(OC)nc(C(Cl)(Cl)Cl)n1 | 331 | 3.57 | 49.1 | inhibition in vivo at 0.1 mg/kg [15]: 56.8%
ClC(Cl)(Cl)c1nc(-c2ccccc2)nc(C(Cl)(Cl)Cl)n1 |  | 5.26 |  | inhibition in vivo at 200 mg/kg [16]: 65.8%
CCCCCCCCCCCCCCCCNc1nc(C(Cl)(Cl)Cl)nc(C(Cl)(Cl)Cl)n1 |  |  |  | inhibition in vivo at 500 mg/kg [11]: 52.9%; inhibition in vivo at 200 mg/kg [17]: 52.8%; logP [4]: 11.05
CNc1nc(C(Cl)(Cl)Cl)nc(C(Cl)(Cl)Cl)n1 | 589 | 3.14 | 69.6 | 
CCCOc1nc(SC)nc(C(Cl)(Cl)Cl)n1 | 257 | 5.17 | 47.6 | inhibition in vivo at 1 mg/kg [2]: 60%
Nc1nc(-c2ccccc2)nc(C(Cl)(Cl)Cl)n1 | 363 | 4.02 |  | residual activity at 1 mg/kg [3]: 20.8%; inhibition in vivo at 5 mg/kg [9]: 49.7%
CCCCCCCCCCCCNc1nc(C(Cl)(Cl)Cl)nc(C(Cl)(Cl)Cl)n1 | 5750 | 8.96 |  | inhibition in vivo at 5 mg/kg [9]: 55.2%; inhibition in vivo at 5 mg/kg [19]: 50%
CCCCCNc1nc(C)nc(C(Cl)(Cl)Cl)n1 | 501 | 5.61 | 61.5 | 
CCCCCNc1nc(C(Cl)(Cl)Cl)nc(C(Cl)(Cl)Cl)n1 | 1230 | 5.25 | 67.1 | 
CCNc1nc(C(Cl)(Cl)Cl)nc(C(Cl)(Cl)Cl)n1 | 257 | 3.68 | 52.7 | 
CCOc1nc(SC)nc(C(Cl)(Cl)Cl)n1 | 676 | 4.64 | 64.8 | inhibition in vivo at 1 mg/kg [2]: 60%
Clc1cccc(C(Cl)(Cl)Cl)n1 [NITRAPYRIN] | 1910 |  |  | residual activity at 1 mg/kg [3]: 30.1%; inhibition in vivo at 5 mg/kg [9]: 22.9%
CCCNc1nc(C(Cl)(Cl)Cl)nc(C(Cl)(Cl)Cl)n1 | 219 | 4.19 | 60 | 
Cc1nc(Nc2ccccc2)nc(C(Cl)(Cl)Cl)n1 | 501 | 4.7 | 66 | inhibition in vivo at 1 mg/kg [2]: 39%
CCCCN(CC)c1nc(C)nc(C(Cl)(Cl)Cl)n1 | 955 | 6.17 | 52.9 | 
CCOc1nc(C(Cl)(Cl)Cl)nc(C(Cl)(Cl)Cl)n1 | 437 | 4.14 |  | inhibition in vivo at 1 mg/kg [2]: 25.8%; residual activity at 1 mg/kg [3]: 27.3%
Cc1nc(Oc2ccc(Cl)cc2)nc(C(Cl)(Cl)Cl)n1 | 741 | 5.94 |  | inhibition in vivo at 1 mg/kg [2]: 47%; residual activity at 1 mg/kg [3]: 36.1%
ClC(Cl)(Cl)c1nc(Nc2ccccc2)nc(C(Cl)(Cl)Cl)n1 |  | 4.33 |  | inhibition in vivo at 0.5 mg/kg [8]: 55%
